# Data: ChEMBL document CHEMBL4251622, “Design, synthesis, and biological evaluation of polo-like kinase 1/eukaryotic elongation factor 2 kinase (PLK1/EEF2K) dual inhibitors for regulating breast cancer cells apoptosis and autophagy” (Eur J Med Chem, 2018)
# Activity calls are given as the source filed them. The calls are words filed in the database; no cut-off is given here.
# Tests used:
# [1] = target: RAF proto-oncogene serine/threonine-protein kinase (Homo sapiens) (UniProt P04049); test: Inhibition of wild-type human partial length RAF1 (I330 to T640 residues) expressed in bacterial expression system assessed as residual activity at 1 uM by Kinomescan method relative to control
# [2] = target: Serine/threonine-protein kinase 32C (Homo sapiens) (UniProt Q86UX6); test: Inhibition of wild-type human partial length YANK3 (M68 to G486 residues) expressed in bacterial expression system assessed as residual activity at 1 uM by Kinomescan method relative to control
# [3] = system: BT-483; test: Induction of apoptosis in human BT-483 cells assessed as late apoptotic cells at 5 uM by Annexin V-FITC/propidium iodide staining based flow cytometry (reference value: 0.36%); format: functional
# [4] = target: Serine/threonine-protein kinase DCLK1 (Homo sapiens) (UniProt O15075); test: Inhibition of wild-type human partial length DCAMKL1 (L270 to A662 residues) expressed in mammalian expression system assessed as residual activity at 1 uM by Kinomescan method relative to control
# [5] = system: Tyrosine-protein kinase ABL1 (Homo sapiens), P00519 [T315I]; test: Inhibition of human phosphorylated ABL1 T315I mutant (S229 to K512 residues) expressed in mammalian expression system assessed as residual activity at 1 uM by Kinomescan method relative to control
# [6] = target: Activin receptor type-1B (Homo sapiens) (UniProt P36896); test: Inhibition of wild-type human ACVR1B (S187 to I505 residues) expressed in bacterial expression system assessed as residual activity at 1 uM by Kinomescan method relative to control
# [7] = target: Serine/threonine-protein kinase B-raf (Homo sapiens) (UniProt P15056); test: Inhibition of wild-type human partial length BRAF (S429 to E741 residues) expressed in mammalian expression system assessed as residual activity at 1 uM by Kinomescan method relative to control
# [8] = system: BT-483; test: Effect on Fas protein expression in human BT-483 cells at 5 to 10 uM by Western blot analysis; format: functional, cell-based
# [9] = target: Casein kinase I isoform delta (Homo sapiens) (UniProt P48730); test: Inhibition of wild-type human full length CSNK1D (M1 to K409 residues) expressed in bacterial expression system assessed as residual activity at 1 uM by Kinomescan method relative to control
# [10] = target: Serine/threonine-protein kinase Nek1 (Homo sapiens) (UniProt Q96PY6); test: Inhibition of wild-type human partial length NEK1 (M1 to K278 residues) expressed in bacterial expression system assessed as residual activity at 1 uM by Kinomescan method relative to control
# [11] = target: SRSF protein kinase 3 (Homo sapiens) (UniProt Q9UPE1); test: Inhibition of wild-type human partial length SRPK3 (P41 to P567 residues) expressed in bacterial expression system assessed as residual activity at 1 uM by Kinomescan method relative to control
# [12] = system: BT-483; test: Induction of apoptosis in human BT-483 cells by Annexin V-FITC/propidium iodide staining based flow cytometry; format: functional, cell-based
# [13] = target: Serine/threonine-protein kinase PAK 1 (Homo sapiens) (UniProt Q13153); test: Inhibition of wild-type human partial length PAK1 (S149 to H545 residues) expressed in bacterial expression system assessed as residual activity at 1 uM by Kinomescan method relative to control
# [14] = target: Tyrosine-protein kinase JAK3 (Homo sapiens) (UniProt P52333); test: Inhibition of wild-type human partial length JAK3 JH1 catalytic domain (I781 to S1124 residues) expressed in mammalian expression system assessed as residual activity at 1 uM by Kinomescan method relative to control
# [15] = target: Serine/threonine-protein kinase pim-1 (Homo sapiens) (UniProt P11309); test: Inhibition of wild-type human partial length PIM1 (A15 to K313 residues) expressed in bacterial expression system assessed as residual activity at 1 uM by Kinomescan method relative to control
# [16] = target: Aurora kinase A (Homo sapiens) (UniProt O14965); test: Inhibition of wild-type human partial length AURKA (E122 to K401 residues) expressed in mammalian expression system assessed as residual activity at 1 uM by Kinomescan method relative to control
# [17] = target: Tyrosine-protein kinase ABL1 (Homo sapiens) (UniProt P00519); test: Inhibition of wild-type human phosphorylated ABL1 (S229 to K512 residues) expressed in mammalian expression system assessed as residual activity at 1 uM by Kinomescan method relative to control
# [18] = target: Focal adhesion kinase 1 (Homo sapiens) (UniProt Q05397); test: Inhibition of wild-type human partial length FAK (D402 to R696 residues) expressed in bacterial expression system assessed as residual activity at 1 uM by Kinomescan method relative to control
# [19] = system: SK-BR-3; test: Cytotoxicity against human SKBR3 cells after 24 hrs by MTT assay; format: functional, cell-based
# [20] = target: Inhibitor of nuclear factor kappa-B kinase subunit beta (Homo sapiens) (UniProt O14920); test: Inhibition of wild-type human full length IKK-beta (M1 to S756 residues) expressed in mammalian expression system assessed as residual activity at 1 uM by Kinomescan method relative to control
# [21] = target: Receptor-interacting serine/threonine-protein kinase 1 (Homo sapiens) (UniProt Q13546); test: Inhibition of wild-type human partial length RIPK1 (M1 to K305 residues) expressed in bacterial expression system assessed as residual activity at 1 uM by Kinomescan method relative to control
# [22] = system: Mast/stem cell growth factor receptor Kit (Homo sapiens), P10721 [V559D,T670I]; test: Inhibition of human partial length KIT V559D/T670I double mutant (Y545 to D952 residues) expressed in bacterial expression system assessed as residual activity at 1 uM by Kinomescan method relative to control
# [23] = target: Cyclin-dependent kinase 7 (Homo sapiens) (UniProt P50613); test: Inhibition of wild-type human full length CDK7 (M1 to L344 residues) expressed in mammalian expression system assessed as residual activity at 1 uM by Kinomescan method relative to control
# [24] = target: Platelet-derived growth factor receptor alpha (Homo sapiens) (UniProt P16234); test: Inhibition of wild-type human partial length PDGFRA (V575 to D1002 residues) expressed in mammalian expression system assessed as residual activity at 1 uM by Kinomescan method relative to control
# [25] = target: Mitogen-activated protein kinase 3 (Homo sapiens) (UniProt P27361); test: Inhibition of wild-type human full length ERK1 (M1 to P379 residues) expressed in bacterial expression system assessed as residual activity at 1 uM by Kinomescan method relative to control
# [26] = target: Serine/threonine-protein kinase TNNI3K (Homo sapiens) (UniProt Q59H18); test: Inhibition of wild-type human full length TNNI3K (M1 to S835 residues) expressed in bacterial expression system assessed as residual activity at 1 uM by Kinomescan method relative to control
# [27] = target: MAP kinase-interacting serine/threonine-protein kinase 2 (Homo sapiens) (UniProt Q9HBH9); test: Inhibition of wild-type human partial length MKNK2 (G63 to S388 residues) expressed in mammalian expression system assessed as residual activity at 1 uM by Kinomescan method relative to control
structure (smiles),measurement,setting,value
CCNc1cc(-c2ccc(NC(=O)Nc3cccc(Cl)c3)cc2C(F)(F)F)ccn1,Activity,[1],64%
same,Activity,[2],73%
same,Activity,[3],6.67%
same,Activity,[4],98%
same,Activity,[5],96%
same,Activity,[6],85%
same,Activity,[7],93%
same,Activity,[8],inactive
same,Activity,[9],86%
same,Activity,[10],60%
same,Activity,[11],98%
same,Activity,[12],Dose-dependent effect
same,Activity,[13],70%
same,Activity,[14],98%
same,Activity,[15],66%
same,Activity,[16],100%
same,Activity,[17],83%
same,Activity,[18],76%
same,Activity,[19],Active
same,Activity,[20],92%
same,Activity,[21],62%
same,Activity,[22],93%
same,Activity,[23],85%
same,Activity,[24],79%
same,Activity,[25],67%
same,Activity,[26],70%
same,Activity,[27],73%
